Assay results reported in patent publication US6451736B1, “Substituted aromatic thiocarboxylic acid amides and their use as herbicides” (Bayer Aktiengesellschaft, priority 1994, dated 2002).

Tests used:
Assay type in all cases: in vivo
[1] = system: Abuthilon; assay: Post-emergence test/greenhouse; details: Table C, after three weeks
Description: (§1) To produce a suitable preparation of active compound, 1 part by weight of active compound is mixed with the stated amount of solvent, the stated amount of emulsifier is added and the concentrate is diluted with water to the desired concentration.
(§2) Test plants which have a height of 5-15 cm are sprayed with the preparation of active compound in such a way as to apply the particular amounts of active compound desired per unit area. After three weeks, the degree of damage to the plants is rated in % damage in comparison to the development of the untreated control.
(§3) 0%=no action (like intreated control)

[2] = system: Amaranthus; assay: Post-emergence test/greenhouse; details: Table C, after three weeks
Description: as §1, §2, §3

[3] = system: Maize; assay: Post-emergence test/greenhouse; details: Table C, after three weeks
Description: as §1, §2, §3

[4] = system: Solanum; assay: Post-emergence test/greenhouse; details: Table C, after three weeks
Description: as §1, §2, §3

[5] = system: Veronica; assay: Post-emergence test/greenhouse; details: Table C, after three weeks
Description: as §1, §2, §3

[6] = system: Wheat; assay: Post-emergence test/greenhouse; details: Table C, after three weeks
Description: as §1, §2, §3

[7] = system: Chenopodium; assay: Post-emergence test/greenhouse; details: Table C, after three weeks
Description: as §1, §2, §3

[8] = system: Portulaca; assay: Pre-emergence test/greenhouse; details: after three weeks
Description: as §1
(§4) Seeds of the test plants are sown in normal soil and, after 24 hours, watered with the preparation of active compound. It is expedient to keep constant the amount of water per unit area. The concentration of the active compound in the preparation is of no importance, only the amount of active compound applied per unit area being decisive. After three weeks, the degree of damage to the plants is rated in % damage in comparison to the development of the untreated control. The figures denote:
(§5) 0%=no action (like untreated control)

[9] = system: Abuthilon; assay: Pre-emergence test/greenhouse; details: Table B, after three weeks
Description: as §1, §4, §5

[10] = system: Amaranthus; assay: Pre-emergence test/greenhouse; details: after three weeks
Description: as §1, §4, §5

[11] = system: Maize; assay: Pre-emergence test/greenhouse; details: after three weeks
Description: as §1, §4, §5

[12] = system: Solanum; assay: Pre-emergence test/greenhouse; details: after three weeks
Description: as §1, §4, §5

[13] = system: Wheat; assay: Pre-emergence test/greenhouse; details: Table B, after three weeks
Description: as §1, §4, §5

[14] = system: Barley; assay: Pre-emergence test/greenhouse; details: Table A, 125 g/ha, after three weeks
Description: as §1, §4, §5

[15] = system: Chenopodium; assay: Pre-emergence test/greenhouse; details: after three weeks
Description: as §1, §4, §5

[16] = system: Matricaria; assay: Pre-emergence test/greenhouse; details: after three weeks
Description: as §1, §4, §5

| SMILES | degree of damage, Portulaca ([8]; Table A, 125 g/ha) | degree of damage, Portulaca ([8]; Table B, 60 g/ha) | degree of damage, Abuthilon ([9]; 60 g/ha) | degree of damage, Amaranthus ([10]; Table A, 125 g/ha) | degree of damage, Amaranthus ([10]; Table B, 60 g/ha) | degree of damage, Maize ([11]; Table A, 125 g/ha) | degree of damage, Maize ([11]; Table B, 60 g/ha) | degree of damage, Solanum ([12]; Table A, 125 g/ha) | degree of damage, Solanum ([12]; Table B, 60 g/ha) | degree of damage, Wheat ([13]; 60 g/ha) | degree of damage, Barley [14] | degree of damage, Chenopodium ([15]; Table A, 125 g/ha) | degree of damage, Chenopodium ([15]; Table B, 60 g/ha) | degree of damage, Matricaria ([16]; Table A, 125 g/ha) | degree of damage, Matricaria ([16]; Table B, 60 g/ha) | degree of damage, Portulaca ([8]; Table B, 125 g/ha) | degree of damage, Abuthilon ([9]; 125 g/ha) | degree of damage, Amaranthus ([10]; Table B, 125 g/ha) | degree of damage, Maize ([11]; Table B, 125 g/ha) | degree of damage, Solanum ([12]; Table B, 125 g/ha) | other results |
| --- | --- | --- | --- | --- | --- | --- | --- | --- | --- | --- | --- | --- | --- | --- | --- | --- | --- | --- | --- | --- | --- |
| CCS(=O)(=O)Nc1cc(-n2nc(C(F)F)n(C)c2=S)c(F)cc1C(N)=S [Example 3, 2-(2-fluoro-4-thiocarbamoyl-5-ethylsulphonylaminophenyl)-4-methyl-5-difluoromethyl-2,4-dihydro-3H-1,2,4-triazole-3-thione] | 100% | 100% | 100% | 100% | 100% | 0% | 0% | 100% | 100% | 0% | 0% | 100% | 100% | 100% | 100% | – | – | – | – | – | degree of damage, Abuthilon ([1]; 30 g/ha): 100%; degree of damage, Amaranthus ([2]; 30 g/ha): 100%; degree of damage, Maize ([3]; 30 g/ha): 30%; degree of damage, Solanum ([4]; 30 g/ha): 100%; degree of damage, Veronica ([5]; 30 g/ha): 100%; degree of damage, Wheat ([6]; 30 g/ha): 10%; degree of damage, Chenopodium ([7]; 30 g/ha): 100% |
| CCn1c(C(F)(F)F)nn(-c2cc(NS(=O)(=O)CC)c(C(N)=S)cc2F)c1=O [Example 5] | 90% | – | – | 100% | – | 0% | – | 100% | – | – | 0% | 100% | – | 90% | – | 90% | 10% | 100% | 0% | 100% | degree of damage, Abuthilon ([1]; 15 g/ha): 100%; degree of damage, Amaranthus ([2]; 15 g/ha): 100%; degree of damage, Maize ([3]; 15 g/ha): 20%; degree of damage, Solanum ([4]; 15 g/ha): 100%; degree of damage, Veronica ([5]; 15 g/ha): 100%; degree of damage, Wheat ([6]; 15 g/ha): 10%; degree of damage, Chenopodium ([7]; 15 g/ha): 100%; degree of damage, Wheat ([13]; 125 g/ha): 0%; degree of damage, Chenopodium ([15]; Table B, 125 g/ha): 100%; degree of damage, Matricaria ([16]; Table B, 125 g/ha): 70% |
| C#CC(C)Oc1cc(-n2nc(C(F)F)n(C)c2=S)c(F)cc1C(N)=S (stereo not shown) [Example 6] | 100% | 100% | 100% | 100% | 100% | 30% | 30% | 100% | 95% | 20% | 0% | 100% | 100% | 95% | 100% | – | – | – | – | – | degree of damage, Abuthilon ([1]; 8 g/ha): 100%; degree of damage, Amaranthus ([2]; 8 g/ha): 100%; degree of damage, Maize ([3]; 8 g/ha): 50%; degree of damage, Solanum ([4]; 8 g/ha): 100%; degree of damage, Veronica ([5]; 8 g/ha): 95%; degree of damage, Wheat ([6]; 8 g/ha): 30%; degree of damage, Chenopodium ([7]; 8 g/ha): 100% |
| CCN(CC)CC.CCS(=O)(=O)Nc1cc(-n2nc(C)n(NC)c2=O)c(F)cc1C(N)=S [Example 7] | 100% | – | – | 100% | – | 0% | – | 95% | – | – | 30% | 100% | – | 95% | – | 100% | 95% | 100% | 0% | 95% | degree of damage, Abuthilon ([1]; 60 g/ha): 100%; degree of damage, Amaranthus ([2]; 60 g/ha): 100%; degree of damage, Maize ([3]; 60 g/ha): 50%; degree of damage, Solanum ([4]; 60 g/ha): 100%; degree of damage, Veronica ([5]; 60 g/ha): 95%; degree of damage, Wheat ([6]; 60 g/ha): 10%; degree of damage, Chenopodium ([7]; 60 g/ha): 95%; degree of damage, Wheat ([13]; 125 g/ha): 50%; degree of damage, Chenopodium ([15]; Table B, 125 g/ha): 100%; degree of damage, Matricaria ([16]; Table B, 125 g/ha): 95% |
